Kd data for 3 compounds are collected here from patent publication US10295551B2, “Development and use of fluorescent probes of unbound bilirubin” (Alan Marc Kleinfeld, priority 2011, dated 2019).

The target in one experiment is T1, human albumin (Homo sapiens, UniProt P02768).
T1 construct: Pooled human plasma (Golden West Biologicals) for which [albumin] was 620 μM was spiked with bilirubin; tissue Golden West Biologicals; host or cells: pooled human plasma
Kind of experiment: Bilirubin binding to a single human albumin site (bilirubin spiked plasma). The following applies: prediction in good agreement with measured [Bf] in spiked pooled human plasma. As for the experimental part: Pooled human plasma (Golden West Biologicals) for which [albumin] was 620 μM was spiked with bilirubin to generate plasma samples with bilirubin/albumin ratios from of approximately 0 to 0.9. Measurements of [Bf] were carried out using BL22P1B1-Rh in either a Fluorolog3 (JY Horiba) using 10×10 mm cuvettes or in a FFAu Meter (FFA Sciences) modified for measuring unbound bilirubin by replacing emission filters with ones centered at […]. Measurements of [Bf] were also performed on the same samples using the peroxidase method of Jacobsen and Wennberg [Jacobsen J and Wennberg R P. Determination of unbound bilirubin in the serum of newborns. Clin Chem 20: 783, 1974].

The target in experiment [1] is T2, rI-FABP (SEQ ID NO: 3) variant ADIFAB2, 72A (Rattus norvegicus, UniProt P02693, L73A).
T2 construct: 6xHis (C)
T2 sequence (P02693 with tags, fused parts or gaps L73A): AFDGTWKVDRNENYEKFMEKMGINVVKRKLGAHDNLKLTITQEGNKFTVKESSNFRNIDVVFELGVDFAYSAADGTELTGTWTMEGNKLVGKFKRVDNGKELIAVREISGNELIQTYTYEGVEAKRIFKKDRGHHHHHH
Kind of experiment: fatty acid binding to ADIFAB2. From the text: (§1) The major (>75%) FFA species generated from Intralipid® are linoleic, oleic, palmitic and linolenic FFA. Because ADIFAB2 is most specific for stearic acid, for which Intralipid® contains only between 1.5 and 5.5%, FFAu probes with specificity for linoleic, oleic, palmitic and linolenic FFA will provide more accurate and sensitive detection of the rise in plasma FFAu due to Intralipid® hydrolysis. Such FFAu probes have been produced (Table 10) using the methods described in U.S. Pat. No. 7,601,510 and U.S. publication 2010/0298162 and in [Huber A H, Kampf J P, Kwan T, Zhu B and Kleinfeld A M. Fatty acid-specific fluorescent probes and their use in resolving mixtures of different unbound free fatty acids in equilibrium with albumin. Biochemistry 45: 14263-14274, 2006]. Sensitive FFAu probes are necessary for detecting the rise in the patient's FFAu levels, early in the titration of Intralipid®, which is critical for the prevention of unbound bilirubin and FFAu from reaching toxic levels.

Experiment [2] addresses T3, rI-FABP (SEQ ID NO: 3) variant L19CP10C7, MGI-14R 18L 27C 71I 73F 117D (Rattus norvegicus, UniProt P02693, A74F/K28C/L73A/M19L/S72I/Y118D/Y15R).
T3 construct: 6xHis (C); made in house
Kind of experiment: fatty acid binding to L19CP10C7.
From the text: as §1

Experiment [3] deals with T4, rI-FABP (SEQ ID NO: 3) variant L138P1H8 N24C, MGI-18L 21L 23Y 24C 31I 55V 72S 73S 74G 76V 117H 128Y (Rattus norvegicus, UniProt P02693, A74S/D75G/F129Y/F56V/G32I/I24Y/L73S/M19L/M22L/N25C/T77V/Y118H).
T4 construct: 6xHis (C); made in house
T4 sequence (P02693 with tags, fused parts or gaps with the stated changes): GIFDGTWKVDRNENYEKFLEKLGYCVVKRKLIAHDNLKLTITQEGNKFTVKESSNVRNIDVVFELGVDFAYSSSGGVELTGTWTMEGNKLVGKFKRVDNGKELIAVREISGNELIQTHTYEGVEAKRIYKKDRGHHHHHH
Kind of experiment: fatty acid binding to L138P1H8N24C.
From the text: as §1

The target of experiment [4] is T5, rI-FABP (SEQ ID NO: 3) variant L22P5E11, 38R 69T 72A 73K 106A (Rattus norvegicus, UniProt P02693, A70T/A74K/L39R/L73A/R107A).
T5 construct: 6xHis (C); made in house
T5 sequence (P02693 with tags, fused parts or gaps L39R/A70T/L73A/A74K/R107A): as the sequence (P02693 with tags, fused parts or gaps L73A) above, with L38R, A69T, A73K, R106A counted along it
The experiment is described as follows: fatty acid binding to L22P5E11.
From the text: as §1

For experiment [5], the target named is T6, rI-FABP (SEQ ID NO: 3) variant L61P8 B12, 8I 14L 18L 23L 27Y 30C 31V 53I 55W 72G 73T 74A 78V 82V 91Y 93M 102V 106W 115W 117L (Rattus norvegicus, UniProt P02693, A74T/D75A/F56W/F94M/G32V/G92Y/I24L/K28Y/L103V/L31C/L73G/L79V/M19L/Q116W/R107W/S54I/V9I/W83V/Y118L/Y15L).
T6 construct: 6xHis (C); made in house
T6 sequence (P02693 with tags, fused parts or gaps with the stated changes): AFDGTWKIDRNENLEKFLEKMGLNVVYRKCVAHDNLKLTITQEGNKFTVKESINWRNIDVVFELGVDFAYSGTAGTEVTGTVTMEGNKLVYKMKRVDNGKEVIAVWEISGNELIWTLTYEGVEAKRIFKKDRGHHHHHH
The experiment is described as follows: fatty acid binding to L61P8B12.
From the text: as §1

In experiment [6] the target is rI-FABP (SEQ ID NO: 3) variant L4BP4B9, 73W 74S (Rattus norvegicus, UniProt P02693, A74W/D75S/L73A). Kind of experiment: fatty acid binding to L4BP4B9.
rI-FABP (SEQ ID NO: 3) variant L4BP4B9, 73W 74S, sequence (P02693 with tags, fused parts or gaps L73A/A74W/D75S): as the sequence (P02693 with tags, fused parts or gaps L73A) above, with A73W, D74S counted along it
From the text: as §1

Experiment [7] concerns the target T7, rI-FABP (SEQ ID NO: 3) variant L119P3E5, 18V 27C 31A 72A 73W (Rattus norvegicus, UniProt P02693, A74W/G32A/K28C/L73A/M19V).
T7 construct: 6xHis (C); made in house
Kind of experiment: fatty acid binding to L119P3E5.
From the text: as §1

pKd: −log10 of the molar value.

T3 sequence (P02693 with tags, fused parts or gaps Y15R/M19L/K28C/S72I/L73A/A74F/Y118D): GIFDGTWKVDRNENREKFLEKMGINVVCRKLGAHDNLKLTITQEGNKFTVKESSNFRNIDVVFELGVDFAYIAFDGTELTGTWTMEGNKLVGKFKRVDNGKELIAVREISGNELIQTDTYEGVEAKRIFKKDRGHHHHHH
T7 sequence (P02693 with tags, fused parts or gaps M19V/K28C/G32A/L73A/A74W): as the sequence (P02693 with tags, fused parts or gaps L73A) above, with M18V, K27C, G31A, A73W counted along it
T1 sequence (P02768 25-609): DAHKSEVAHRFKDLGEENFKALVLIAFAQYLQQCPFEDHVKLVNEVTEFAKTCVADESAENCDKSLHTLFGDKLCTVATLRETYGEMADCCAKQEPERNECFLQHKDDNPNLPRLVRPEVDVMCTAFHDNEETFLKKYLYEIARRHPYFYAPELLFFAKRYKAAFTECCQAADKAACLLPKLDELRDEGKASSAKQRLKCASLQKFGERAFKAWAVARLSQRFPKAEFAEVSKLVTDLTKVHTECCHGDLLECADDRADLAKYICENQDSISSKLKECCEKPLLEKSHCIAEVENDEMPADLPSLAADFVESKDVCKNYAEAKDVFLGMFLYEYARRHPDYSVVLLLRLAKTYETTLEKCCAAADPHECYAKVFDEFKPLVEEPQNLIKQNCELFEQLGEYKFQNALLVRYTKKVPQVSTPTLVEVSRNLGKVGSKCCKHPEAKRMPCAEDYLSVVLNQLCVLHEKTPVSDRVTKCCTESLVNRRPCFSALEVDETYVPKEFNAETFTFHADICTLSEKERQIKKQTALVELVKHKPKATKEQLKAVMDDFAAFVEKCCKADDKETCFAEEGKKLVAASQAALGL

In the case of `C=CC1=C(C)/C(=C/c2[nH]c(Cc3[nH]c(/C=C4\NC(=O)C(C)=C4C=C)c(C)c3CCC(=O)O)c(CCC(=O)O)c2C)NC1=O` [Bilirubin, unconjugated bilirubin IXα], on human albumin, the pKd (as a rule, the Kd on a negative log10 scale, so that one unit is a factor of ten) was 7.70.
With `CCCCC/C=C\C/C=C\CCCCCCCC(=O)O` [Linoleate 18:2 (n-6), Linoleate], the pKd in experiment [1] is 6.98; in experiment [2] it was 9.10; in experiment [3], 8.19; in experiment [4] it was 8.17; in experiment [5] it was 7.59; in experiment [6], 7.39. This compound showed a pKd in experiment [7] of 7.64.
With `CCCCCCCC/C=C\CCCCCCCC(=O)O` [Oleate 18:1 (n-9), Oleate], the pKd is 7.67 in experiment [1]; 8.92 in experiment [2]; 8.12 in experiment [3]; 8.51 in experiment [4]; 8.37 in experiment [5]; 7.72 in experiment [6]. Also, in experiment [7], the pKd was 7.90.
